# Assay results taken from PubChem BioAssay (NCI).
# Several values for one entry are separate records, joined by “and”; a condition that tells them apart may be missing. Equal entries are not always repeated.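 Values below derive from 48-hour exposures of cells grown in 96-well plates, with endpoints linearly interpolated between the two concentrations bracketing the appropriate inhibition level. GI50 = concentration required for 50% inhibition of growth. TGI marks complete inhibition of growth.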
# Key:
# Experiment in all cases: DTP human tumour cell line panel, 48 h
# OVCAR-5 ovarian = system: OVCAR-5 ovarian
# UACC-62 melanoma = system: UACC-62 melanoma
# SK-OV-3 ovarian = system: SK-OV-3 ovarian
# ACHN renal = system: ACHN renal
# SK-MEL-5 melanoma = system: SK-MEL-5 melanoma
# NCI/ADR-RES ovarian = system: NCI/ADR-RES ovarian
# COLO 205 colon = system: COLO 205 colon
# PC-3 prostate = system: PC-3 prostate
# SF-268 CNS = system: SF-268 CNS
# T-47D breast = system: T-47D breast
# NCI-H460 lung = system: NCI-H460 lung
# DU-145 prostate = system: DU-145 prostate
# CAKI-1 renal = system: CAKI-1 renal
# NCI-H226 lung = system: NCI-H226 lung
# BT-549 breast = system: BT-549 breast
# MOLT-4 leukemia = system: MOLT-4 leukemia
# MDA-MB-231 breast = system: MDA-MB-231 breast
# RPMI-8226 leukemia = system: RPMI-8226 leukemia
# HOP-62 NSCLC = system: HOP-62 NSCLC
# MCF7 breast = system: MCF7 breast
# KM12 colon = system: KM12 colon
# MALME-3M melanoma = system: MALME-3M melanoma
# M14 melanoma = system: M14 melanoma
# HL-60(TB) leukemia = system: HL-60(TB) leukemia
# TK-10 renal = system: TK-10 renal
# IGROV1 ovarian = system: IGROV1 ovarian
# RXF 393 renal = system: RXF 393 renal
# CCRF-CEM leukemia = system: CCRF-CEM leukemia
# LOX IMVI melanoma = system: LOX IMVI melanoma
# 786-0 renal = system: 786-0 renal
# NCI-H522 lung = system: NCI-H522 lung
# HS 578T breast = system: HS 578T breast
# NCI-H23 lung = system: NCI-H23 lung
# MDA-MB-435 = system: MDA-MB-435
# SF-539 CNS = system: SF-539 CNS
# HCC-2998 colon = system: HCC-2998 colon
# HCT-116 colon = system: HCT-116 colon
# UACC-257 melanoma = system: UACC-257 melanoma
# SN12C renal = system: SN12C renal
# UO-31 renal = system: UO-31 renal
# SW-620 colon = system: SW-620 colon
# SF-295 CNS = system: SF-295 CNS
# EKVX NSCLC = system: EKVX NSCLC
# A498 renal = system: A498 renal
# K-562 leukemia = system: K-562 leukemia
# SNB-75 CNS = system: SNB-75 CNS
smiles,measurement,setting,value
Cc1cc2c(cc1C)[n+](Cc1ccc3ccccc3c1)cn2Cc1ccc2ccccc2c1,GI50,OVCAR-5 ovarian,1130 nM
same,TGI,OVCAR-5 ovarian,2430 nM
same,GI50,UACC-62 melanoma,459 nM
same,TGI,UACC-62 melanoma,1790 nM
same,GI50,SK-OV-3 ovarian,1500 nM
same,TGI,SK-OV-3 ovarian,2900 nM
same,GI50,ACHN renal,1650 nM
same,TGI,ACHN renal,3080 nM
same,GI50,SK-MEL-5 melanoma,1050 nM
same,TGI,SK-MEL-5 melanoma,2230 nM
same,GI50,NCI/ADR-RES ovarian,6600 nM
same,TGI,NCI/ADR-RES ovarian,64400 nM
C[C@]12C[C@H](CCCCCCNCCOC(=O)NCCCc3ccc(N(CCCl)CCCl)cc3)C3=C4CCC(=O)C=C4CCC3C1CC[C@@H]2O (stereo partly drawn),GI50,COLO 205 colon,1450 nM
same,TGI,COLO 205 colon,3900 nM
same,GI50,PC-3 prostate,1170 nM
same,GI50,SF-268 CNS,1200 nM
same,TGI,SF-268 CNS,3860 nM
same,GI50,OVCAR-5 ovarian,5840 nM
same,TGI,OVCAR-5 ovarian,11000 nM
same,GI50,T-47D breast,1170 nM
same,TGI,T-47D breast,4500 nM
same,GI50,NCI-H460 lung,672 nM
same,TGI,NCI-H460 lung,4080 nM
same,GI50,DU-145 prostate,454 nM
same,TGI,DU-145 prostate,1930 nM
same,GI50,CAKI-1 renal,1550 nM
same,TGI,CAKI-1 renal,3300 nM
same,GI50,NCI-H226 lung,2150 nM
same,TGI,NCI-H226 lung,4150 nM
same,GI50,BT-549 breast,1600 nM
same,TGI,BT-549 breast,3090 nM
same,GI50,MOLT-4 leukemia,340 nM
same,TGI,MOLT-4 leukemia,1560 nM
same,GI50,MDA-MB-231 breast,2010 nM
same,TGI,MDA-MB-231 breast,3440 nM
same,GI50,RPMI-8226 leukemia,304 nM
same,TGI,RPMI-8226 leukemia,1060 nM
same,GI50,HOP-62 NSCLC,2200 nM
same,TGI,HOP-62 NSCLC,10400 nM
same,GI50,MCF7 breast,300 nM
same,TGI,MCF7 breast,3050 nM
same,GI50,KM12 colon,1870 nM
same,TGI,KM12 colon,> 21600 nM
same,GI50,MALME-3M melanoma,2290 nM
same,TGI,MALME-3M melanoma,5150 nM
same,GI50,M14 melanoma,2900 nM
same,TGI,M14 melanoma,7290 nM
same,GI50,HL-60(TB) leukemia,248 nM
same,TGI,HL-60(TB) leukemia,659 nM
same,GI50,TK-10 renal,1850 nM
same,TGI,TK-10 renal,4490 nM
same,GI50,IGROV1 ovarian,334 nM
same,TGI,IGROV1 ovarian,2110 nM
same,GI50,RXF 393 renal,294 nM
same,TGI,RXF 393 renal,1210 nM
same,GI50,CCRF-CEM leukemia,234 nM
same,TGI,CCRF-CEM leukemia,621 nM
same,GI50,LOX IMVI melanoma,1060 nM
same,TGI,LOX IMVI melanoma,2270 nM
same,GI50,SK-MEL-5 melanoma,1470 nM
same,TGI,SK-MEL-5 melanoma,3020 nM
same,GI50,786-0 renal,841 nM
same,TGI,786-0 renal,3890 nM
same,GI50,NCI-H522 lung,1630 nM
same,TGI,NCI-H522 lung,3180 nM
same,GI50,HS 578T breast,1660 nM
same,TGI,HS 578T breast,4610 nM
same,GI50,NCI-H23 lung,1540 nM
same,TGI,NCI-H23 lung,3010 nM
same,GI50,MDA-MB-435,2380 nM
same,TGI,MDA-MB-435,6530 nM
same,GI50,NCI/ADR-RES ovarian,14000 nM
same,TGI,NCI/ADR-RES ovarian,36200 nM
same,GI50,SF-539 CNS,1400 nM
same,TGI,SF-539 CNS,3330 nM
same,GI50,HCC-2998 colon,1810 nM
same,TGI,HCC-2998 colon,3230 nM
same,GI50,HCT-116 colon,2340 nM
same,GI50,UACC-257 melanoma,1690 nM
same,TGI,UACC-257 melanoma,3210 nM
same,GI50,SN12C renal,1890 nM
same,TGI,SN12C renal,3390 nM
same,GI50,UO-31 renal,1270 nM
same,TGI,UO-31 renal,2980 nM
same,GI50,SW-620 colon,1200 nM
same,TGI,SW-620 colon,4070 nM
same,GI50,SF-295 CNS,2070 nM
same,TGI,SF-295 CNS,> 100000 nM
same,GI50,EKVX NSCLC,2070 nM
same,TGI,EKVX NSCLC,4050 nM
same,GI50,A498 renal,1930 nM
same,TGI,A498 renal,3560 nM
same,GI50,K-562 leukemia,308 nM
same,TGI,K-562 leukemia,1070 nM
same,GI50,SNB-75 CNS,1460 nM
same,TGI,SNB-75 CNS,2910 nM
O=C1NC2C(CC(O)C(O)C2O)c2cc3c(c(O)c21)OCO3 (stereo not drawn),GI50,COLO 205 colon,25.5 nM and < 10 nM
same,TGI,COLO 205 colon,127 nM and 15.6 nM
